Where two headings read alike, the source gives them in different places.
Experiments:
human CTPS1 versus CTPS2 = experiment: Human CTPS1 versus CTPS2 selectivity assessment by RapidFire/MS analysis; format: biochemical; settings: RapidFire/MS IC50 ratio
Experimental: Human CTPS1 versus CTPS2 Selectivity Assessment by RapidFire/MS Analysis.
The enzyme inhibitory activities against each target isoform of interest may be determined for the compounds of the invention using an optimised RapidFire high-throughput mass spectrometry (RF/MS) assay format. RF/MS assays for both human CTPS1 and CTPS2 may be performed in assay buffer consisting of 50 mM HEPES (Merck), 20 mM MgCl2, 5 mM KCl, 1 mM DTT, 0.01% Tween-20, pH to 8.0 accordingly. Human full-length active C-terminal FLAG-His-tag CTPS1 (UniProtKB—P17812, CTPS[1-591]-[…]) may be obtained from Proteros biostructures GmbH. Human full length active C-terminal FLAG-His-Avi tagged CTPS2 (UniProtKB-Q9NRF8, CTPS2 [1-586]-[…]) may be obtained from Harker Bio.
Human CTPS (1 or 2) protein may be prepared in 1× assay buffer to the final working protein concentration required for the reaction. A 2 uL volume per well of 2×CTPS (1 or 2) protein may be mixed with 40 nL of compound using acoustic (ECHO) delivery and incubated for 10 minutes at 25° C. Each isoform enzymatic reaction may be subsequently initiated by addition of 2 uL per well of a 2× substrate mix in assay buffer. For hCTPS1: ATP (0.3 mM), UTP (0.2 mM), GTP (0.07 mM) and L-glutamine (0.1 mM). For hCTPS2: ATP (0.1 mM), UTP (0.04 mM), GTP (0.03 mM) and L-glutamine (0.1 mM). Each mixture may be incubated for an appropriate amount of time per isoform within the determined linear phase of the reaction at 25′C. A 60 uL volume of stop solution (1% formic acid with 0.5 uM ^13C9-^15N3-CTP in H2O) may be added and the plate immediately heat-sealed and centrifuged for 10 minutes at 4,000 rpm. Following centrifugation, plates may be loaded onto the Agilent RapidFire microfluidic solid phase extraction system coupled to an API4000 triple quadrupole mass spectrometer (RF/MS) for analysis.
In all cases, the enzyme converts UTP to CTP. Highly specific and sensitive multiple reaction monitoring (MRM) MS methods may be optimised for the detection of the enzymatic reaction product, CTP, and the stable isotope labelled product standard ^13C9-^15N3-CTP. Readout for data analysis may be calculated as the ratio between the peak area of the product CTP and the internal standard ^13C9-^15N3-CTP. For data reporting, the following equation may be used: […]
For each screening plate, the means of the negative (DMSO) and positive control values were used for the calculation of the respective assay window (S/B) and Z′ values. The median of the respective control values was used for calculation of percent inhibition according to the following equation: […]
(§1) Percentage inhibition was then plotted against compound concentration, and the 50% inhibitory concentration (IC50) was determined from the resultant concentration-response curve.
Fold selectivity between CTPS1 and CTPS2 was subsequently calculated according to the following equation: […]

human CTPS1 = target: T1, human CTPS1 (Homo sapiens, UniProt P17812); experiment: Human CTPS1 enzyme inhibition (ADP-Glo Max assay); format: biochemical
T1 construct: purchased Proteros biostructures GmbH
T1 sequence (P17812 1-591): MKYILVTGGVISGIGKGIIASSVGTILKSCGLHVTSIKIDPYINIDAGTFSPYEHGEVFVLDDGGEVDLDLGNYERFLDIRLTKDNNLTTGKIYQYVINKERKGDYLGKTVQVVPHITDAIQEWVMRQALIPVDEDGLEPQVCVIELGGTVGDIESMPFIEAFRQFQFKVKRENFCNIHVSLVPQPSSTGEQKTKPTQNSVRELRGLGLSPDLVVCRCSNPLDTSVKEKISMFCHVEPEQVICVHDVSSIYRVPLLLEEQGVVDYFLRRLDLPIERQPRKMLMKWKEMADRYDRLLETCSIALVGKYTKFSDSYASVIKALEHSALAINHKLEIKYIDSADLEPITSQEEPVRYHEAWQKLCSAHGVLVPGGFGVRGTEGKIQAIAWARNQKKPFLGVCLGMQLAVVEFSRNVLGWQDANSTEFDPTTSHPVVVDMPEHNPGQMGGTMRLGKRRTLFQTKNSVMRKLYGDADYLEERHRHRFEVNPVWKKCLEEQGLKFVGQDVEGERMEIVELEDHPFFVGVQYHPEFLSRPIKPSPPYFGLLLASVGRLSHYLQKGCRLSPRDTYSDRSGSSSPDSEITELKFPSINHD
Experimental: The enzyme inhibitory activities of compounds invented against the target of interest were determined using the ADP-Glo™ Max assay (Promega, UK). Assays for human CTPS1 were performed in 1× assay buffer containing 50 mM Tris, 10 mM MgCl2, 0.01% Tween-20, pH to 8.0 accordingly. Finally, immediately before use, L-cysteine was added to the 1× assay buffer to a final concentration of 2 mM. All reagents are from Sigma-Aldrich unless specified otherwise. Human full length active C-terminal FLAG-Hiss-tag CTPS1 (UniProtKB—P17812, CTPS[1-591]-[…]) was obtained from Proteros biostructures GmbH.
3× human CTPS1 protein was prepared in 1× assay buffer to the final working protein concentration required for the reaction. A 2 uL volume per well of 3× human CTPS1 protein was mixed with 2 uL per well of 3× test compound (compound prepared in 1× assay buffer to an appropriate final 3× compound concentration respective to the concentration response curve designed for the compounds under test) for 10 minutes at 25° C. The enzymatic reaction was then initiated by addition of a 2 uL per well volume of a pre-mixed substrate mix (UltraPure ATP from ADP-Glo™ Max kit (0.31 mM), GTP (0.034 mM), UTP (0.48 mM) and L-glutamine (0.186 mM)) and the mixture was incubated for an appropriate amount of time within the determined linear phase of the reaction at 25° C. under sealed plate conditions with constant agitation at 500 revolutions per minute (rpm). ADP-Glo™ Max reagent was added for 60 minutes (6 μL per well) and subsequently ADP-Glo™ Max development reagent was added for 60 minutes (12 uL per well) prior to signal detection in a microplate reader (EnVision® Multilabel Reader, Perkin Elmer). Following each reagent addition over the course of the assay, assay plates were pulse centrifuged for 30 seconds at 500 rpm.
In all cases, the enzyme converts ATP to ADP and the ADP-Glo™ Max reagent subsequently depletes any remaining endogenous ATP in the reaction system. The ADP-Glo™ Max detection reagent converts the ADP that has been enzymatically produced back into ATP and using ATP as a substrate together with luciferin for the enzyme luciferase, light is generated which produces a detectable luminescence. […] The percentage inhibition produced by each concentration of compound was calculated using the equation shown below: […]
as §1

[1] = Table 25, compounds wherein R1 is C1-5fluoroalkyl, read-out: CTPS1 (Human CTPS1 Enzyme Inhibition data grouped by potency range)

CC(C)Oc1cncc(-c2ccc(NC(=O)C(C)(C)c3ccnc(NS(=O)(=O)C4CC4)n3)nc2)n1 [Example P9]
Selectivity (fold selectivity between CTPS1 and CTPS2) (human CTPS1 versus CTPS2; Table 26): +++ (>60 fold (+++)) | IC50 (human CTPS1; Table 23, read-out: CTPS1 (Human CTPS1 Enzyme Inhibition data grouped by potency range)): ≤ 100 nM

CCOc1cncc(-c2ccc(NC(=O)C3(c4ccnc(NS(=O)(=O)N(C)C)n4)CCOCC3)nc2)n1 [Example P248]
Selectivity (fold selectivity between CTPS1 and CTPS2) (human CTPS1 versus CTPS2; Table 27): +++ (>60 fold (+++)) | IC50 (human CTPS1; Table 24, read-out: CTPS1 (Human CTPS1 Enzyme Inhibition data grouped by potency range)): 100 to 1000 nM

CCOc1cncc(-c2ccc(NC(=O)C3(c4ccnc(NS(=O)(=O)CC(F)F)n4)CCOCC3)nc2)n1 [Example P271, 4-(2-((2,2-difluoroethyl)sulfonamido)pyrimidin-4-yl)-N-(5-(6-ethoxypyrazin-2-yl)pyridin-2-yl)tetrahydro-2H-pyran-4-carboxamide]
IC50 (human CTPS1; [1]): ≤ 100 nM

CCOc1cncc(-c2ccc(NC(=O)C(F)(CC)c3ccnc(NS(=O)(=O)CC(F)F)n3)nc2)n1 (stereo not drawn) [Example P284, 2-(2-((2,2-difluoroethyl)sulfonamido)pyrimidin-4-yl)-N-(5-(6-ethoxypyrazin-2-yl)pyridin-2-yl)-2-fluorobutanamide]
IC50 (human CTPS1; [1]): ≤ 100 nM
